Assay results from publication PMC12055592, “Post-symptomatic NLRP3 inhibition rescues cognitive impairment and mitigates amyloid and tau driven neurodegeneration” (Npj Dementia, 2025).

Assays:
5XFAD/Rubicon KO mice [1] = experiment: Spontaneous alternation (Y-maze) in 5XFAD/Rubicon KO mice; type: in vivo, mouse
Protocol: (§1) 5XFAD/Rubicon KO mice received vehicle (0.5% w/v methylcellulose/0.1% w/v Tween® 80 in water) or VEN-02XX (0.01, 1, or 20 mg/kg) every day by oral gastric gavage for 9 weeks.
Spontaneous alternation was measured in a standard Y-maze setup. Mice were acclimated to the testing room for 48 h. In each 5-min trial, percent spontaneous alternation was measured as […][32]. Any mouse with less than 5 arm entries during the 5 min trial was excluded from the analysis.

[2] = Mouse brain pharmacokinetic study (brain-to-plasma partition); type: in vivo; settings: male, single oral dose 20 mg/kg
Protocol: Five groups of n = 3 male CD1 mice (weight 20–30 g, age 6–8 weeks old) were dosed by oral gavage with 20 mg/kg of VEN-02XX suspended in 0.5% w/v methylcellulose/0.1% w/v Tween 80, at a dose volume of 10 mL/kg. Food and water were available ad libitum to all animals. At a specific timepoint for each group (0.25, 1, 2, 4, and 8 h), 0.2 mL of blood was collected from the dorsal metatarsal vein and transferred into plastic micro centrifuge tubes with EDTA-K2 as anticoagulant, then animals were terminally anaesthetized with a rising concentration of CO2 gas for about 1 min, brains were collected and rinsed with cold PBS. […]
Concentrations of VEN-02XX in plasma and brain were determined by a LC-MS/MS assay. […] Two transitions were monitored for VEN-02XX and the more sensitive transition with less interference (397.1 –> 270.1) was used for quantification.
(§2) Pharmacokinetic parameters were determined by non-compartmental analysis using WinNonLin software (Phoenix^TM, version 8.3), and the following parameters were calculated from the plasma concentrations versus time data: T1/2, Cmax, Tmax, AUCinf, AUClast. When appropriate, the brain Kp was calculated as AUClast(brain)/AUClast(plasma). Free brain partition coefficient (Kpuu) was calculated using the free fraction in plasma and brain measured in a high throughput equilibrium dialysis assay.

5XFAD/Rubicon KO mice [3] = experiment: Novel object recognition in 5XFAD/Rubicon KO mice; type: in vivo, mouse
Protocol: as §1
Mice were acclimated to the testing room for 48 h. For habituation, mice were allowed to explore an open-field box (50 cm × 50 cm) for 15 min per day over the course of 48 h. Mice were then exposed to two identical objects for 10 min on the day of testing. One hour later, a novel object was introduced, and mice were allowed to explore for 5 min during the test phase. The time spent exploring each object was quantified using AnyMaze video tracking software using the manufacturer define NOR protocol. Novel object preference (%) and the discrimination index (time with novel)/(novel + familiar) * 100) were calculated for each mouse using AnyMaze software.

[4] = Mouse pharmacokinetic study, 7 days oral dosing, blood; type: in vivo; settings: WT mice
Protocol: Male C57Bl/6 mice (weight 20–30 g, age 6–8 weeks old) were obtained from Charles River Laboratories Canada, and acclimated for 5 days before the study. Three animals were dosed by oral gavage during 7 days with 20 mg/kg of VEN-02XX suspended in 0.5% w/v methylcellulose/0.2% w/v Tween 80, at a dose volume of 10 mL/kg. Food and water were available ad libitum to all animals. On day 7, serial blood samples were collected from a tail snip at 0.25, 0.5, 1, 2, 4, 6, and 24 h post-dose, and […] of blood was added to a micro tube racked system pre-filled with […] of 10 mM sodium citrate buffer (final blood/buffer ratio 1:3, or dilution factor of 4). The plate was stored at −20 °C until LC-MS/MS analysis.
Concentrations of VEN-02XX in plasma and brain were determined by a LC-MS/MS assay. The plasma samples were thawed at room temperature and 20 μL aliquot of each sample was added to a 1.2 mL deep 96-well plate containing 20 µL ACN. The standard curve was prepared by making different dilutions in ACN. A 20 µL standard solution at each concentration was added into a 96-deepwell plate, followed by addition of 20 µL blank plasma or brain homogenate. Then, 200 μL of an internal standard mixture (5 ng/mL Glyburide and Loperamide in ACN) was added to each sample. The plates were vortexed and centrifuged at 4000 rpm for 10 min at 4 °C; 70 μL of the supernatant was diluted with 140 μL of water, and 10 μL of the solution was injected onto an analytical column. A Shimadzu UPLC system coupled with a SCIEX 4500 mass spectrometer (AB Sciex, Foster City, CA) was used for sample analysis. The mobile phase A was 0.1% FA in water and mobile phase B was 0.1% FA in 1/5 IPA/ACN. The gradient started at 10% B, held for 0.2 min and increased to 95% B in 1.3 min, maintained at 95% B for 0.7 min, and then decreased to 10% B within 0.01 min. The total flow rate was 0.5 mL/min, and samples were injected onto an Acquity UPLC BEH C18 (2.1 mm × 5 cm, 2.3 u) analytical column with a total run time of 2.5 min. Data were acquired using multiple reactions monitoring (MRM) in positive ion electrospray mode with an operating source temperature of 400 °C. Two transitions were monitored for VEN-02XX and the more sensitive transition with less interference (397.1 –> 270.1) was used for quantification.
as §2

[5] = 9 weeks, 0.01, 1, 20 mg/kg PO QD vs vehicle
[6] = male, C57Bl/6, mouse, whole blood, blood, 20 mg/kg PO QD for seven days

SMILES: CC(C)(O)CNc1nnc(-c2ccc(Cl)cc2C(F)(F)F)c2ccncc12 [VEN-02XX]
- spontaneous alternation (Y-maze) (5XFAD/Rubicon KO mice [1]; [5]): striking dose-dependent improvement
- spontaneous alternation (Y-maze), learning and memory (5XFAD/Rubicon KO mice [1]; 9 weeks, 20 mg/kg PO QD): restoration of learning and memory to near wild type control levels for most animals
- Kp ([2]; CD1, brain and plasma (total), AUClast (total drug), read-out: total brain-to-plasma partition coefficient, Kp): 0.86
- Kp uu ([2]; CD1, brain and plasma (unbound), AUClast (free drug), read-out: unbound brain-to-plasma partition coefficient, Kp,uu brain): 0.39
- novel object recognition (5XFAD/Rubicon KO mice [3]; [5]): striking dose-dependent improvement
- novel object recognition, learning and memory (5XFAD/Rubicon KO mice [3]; 9 weeks, 20 mg/kg PO QD): restoration of learning and memory to near wild type control levels for most animals
- NLRP3 inhibitory activity maintained by exposure ([4]; 20 mg/kg PO once daily, 7 days): sufficient to maintain a 50% inhibitory activity of NLRP3 throughout the dosing schedule
- AUC(0-inf) [4, 6]: 143 µM·h
- Cmax [4, 6]: 20.7 µM
- Tmax [4, 6]: 1 h
- half-life [4, 6]: 3.16 h
